The structures appear in SMILES notation.

This data set can be described thus: Human HepG2 cell viability assay in 384 well format. Format: toxicity, cell-based. Also on record: dose 125 nL, time 70.5 hour; cytotoxicity at 70.5 h: concentration not given beside the values. The conditions noted are these: HepG2 cells, read-out: Inhibition.
On to `NC(=O)NCC(=O)N1CCCC(c2nccn2CC2CCC2)C1` (centres undefined), for which the cytotoxicity at 70.5 h is -1.33%.

Regarding `CCc1[nH]c2c(CNC(=O)[C@@H]3CCCN3C)cc(C)cc2c1C`, the cytotoxicity at 70.5 h stood at 6.71%.

Consider `O=C1O[C@@H]2CN(c3cnccn3)C[C@@H]2N1CCCc1ccc(F)cc1`, for which the cytotoxicity at 70.5 h is -7.8%.

For the molecule `O=C(NCCCc1nnc2ccccn12)c1ccccc1C1CCNC1` (centres undefined), the cytotoxicity at 70.5 h is -0.698%.

As to `CCc1nc(CN(CCc2ccccc2)C2CCN(C)CC2)no1`, the cytotoxicity at 70.5 h is -9.81%.

As to `CNc1nc(N2CCC3(CCCNC3=O)C2)nc2c1CCC2` (centres undefined), the cytotoxicity at 70.5 h is -6.8%.

Consider `CN(C)c1ccc(CC(=O)N2CCOCC(O)C2)cc1` (centres undefined), for which the cytotoxicity at 70.5 h is 22.5%.

With `COc1cccc(OC)c1CN1CC(=O)N(c2ccc(C)cc2)CC1C` (centres undefined), the cytotoxicity at 70.5 h was 1.44%.

Regarding `CN1C(=O)CC(C(=O)O)C12CCN(Cc1ccc(Cl)c(F)c1)CC2` (centres undefined), the cytotoxicity at 70.5 h is 9.92%.

For the molecule `O=C(C1CCC1)N1CCN(Cc2ccccc2F)[C@H]2CS(=O)(=O)C[C@H]21`, the cytotoxicity at 70.5 h was -4.65%.

`O=C(c1ccc[nH]1)N1CCc2c(cccc2S(=O)(=O)N2CCOCC2)C1`: the cytotoxicity at 70.5 h worked out at 29.8%.

As to `COc1ncc(CN2CCC3(CCNC(=O)CC3)CC2)cn1`, the cytotoxicity at 70.5 h was determined as 4.98%.

For `CCCN(CC)Cc1ccc(C(=O)NCC2COCCO2)c(=O)[nH]1` (centres undefined), the cytotoxicity at 70.5 h was -6.16%.

For the molecule `CN(Cc1ccncc1)Cc1cnn(-c2ccc(F)cc2)c1`, the cytotoxicity at 70.5 h was -13.3%.

Regarding `CCCS(=O)(=O)N1C[C@@H]2CC[C@H](C1)N(Cc1cscn1)C2=O`, the cytotoxicity at 70.5 h was -9.73%.

As for `COc1cccc(OCCCc2cc(C#N)ccn2)c1`, the cytotoxicity at 70.5 h came to 11%.

As to `O=C(NCCc1nc(-c2ccccn2)no1)c1ccc(C2CCCO2)s1` (centres undefined), the cytotoxicity at 70.5 h is -5.15%.

For the molecule `Cc1nc(CCNC(=O)C2CC(=O)N(C(C)(C)C)C2)sc1Cl` (centres undefined), the cytotoxicity at 70.5 h was 4.69%.

Take `CCOCc1nc2c(c(N(C)Cc3snnc3C)n1)CCNCC2`: the cytotoxicity at 70.5 h is -9.47%.

As for `COCCn1ccnc1CN(Cc1ccccn1)Cc1sccc1C`, the cytotoxicity at 70.5 h is -7.84%.

For the molecule `COc1ccc(F)c(-c2cc(C(=O)NC3CC3)ccn2)c1`, the cytotoxicity at 70.5 h is -14.2%.

Turning to `O=C(NCc1cccc(C(F)(F)F)c1)C(c1cccnc1)N1CCCC1` (centres undefined), the cytotoxicity at 70.5 h is -4.98%.

Take `CC(c1cccc(-c2ncc(C#N)c(N)n2)c1)N(C)C` (centres undefined): the cytotoxicity at 70.5 h was -12.5%.

With `CN(C)CCNc1cc(-c2ccccc2C(N)=O)c2cc[nH]c2n1`, the cytotoxicity at 70.5 h is -8.6%.

On to `O=C(Cn1ccnc1)N(CCO)CCSc1ccc(Cl)cc1`, for which the cytotoxicity at 70.5 h was -8.84%.

For the molecule `COc1ccc(C(=O)C2CCCN(c3cc(OC)ncn3)C2)c(C)c1` (centres undefined), the cytotoxicity at 70.5 h was found to be 10.1%.

Consider `Nc1nc2c(c(NC(Cn3cccn3)c3ccccc3)n1)CCNCC2` (centres undefined), for which the cytotoxicity at 70.5 h amounted to 0.802%.

Regarding `O=S(=O)(c1cccnc1)N1C[C@@H]2CC[C@H](C1)N(Cc1ccccn1)C2`, the cytotoxicity at 70.5 h was -5.11%.

With `Cc1nc(N2CCCCC2)ncc1-c1cc(=O)[nH]c(N2CCCC2)n1`, the cytotoxicity at 70.5 h was 2.6%.

For `CCC(NC(=O)C1CCN(S(C)(=O)=O)CC1)c1ccc(C)cc1` (centres undefined), the cytotoxicity at 70.5 h is -3.68%.

Regarding `CCN(c1ccc(C(=O)N2CCCCCC2)cc1)S(=O)(=O)CC`, the cytotoxicity at 70.5 h is -2.32%.

As for `CN(c1ccc(C(=O)NCCN2CCOCC2)c(Cl)c1)S(C)(=O)=O`, the cytotoxicity at 70.5 h is -1.41%.

As to `CC(C)Cc1cc(C(=O)NCC(O)c2ccc(F)cc2)n(C)n1` (centres undefined), the cytotoxicity at 70.5 h was -16.2%.

`CN1CCC(Oc2ccc(NC(=O)c3ccccc3)cc2)CC1`: the cytotoxicity at 70.5 h is -9.56%.

In the case of `Cc1cc(Cc2ccc(S(=O)(=O)N3CCSCC3)cc2)c(=O)[nH]n1`, the cytotoxicity at 70.5 h was determined as 1.5%.

On to `O=C(c1ncccc1O)N1CCN(Cc2ccco2)C(CCO)C1` (centres undefined), for which the cytotoxicity at 70.5 h was -11.1%.

With `CC(C)[C@@H]1CN(Cc2ccccc2C#N)C[C@H]1N(C)C`, the cytotoxicity at 70.5 h was determined as 31.1%.

With `Cc1cccc(NCc2nn(C)c(=O)[nH]2)c1`, the cytotoxicity at 70.5 h is -11%.

As for `CCC(C(=O)NCc1ccccn1)N(c1cccc(C)c1)S(C)(=O)=O` (centres undefined), the cytotoxicity at 70.5 h is -1.44%.

Consider `CCCN1CCCn2nc(CNC(=O)CC(C)n3ccnc3C)cc2C1` (centres undefined), for which the cytotoxicity at 70.5 h is 9.04%.

Turning to `CCN(c1ccc(C(=O)N2CCC(C(N)=O)CC2)cc1)S(=O)(=O)CC`, the cytotoxicity at 70.5 h is 15.4%.

Take `CCCOCC1CCN(C(=O)c2cnc(-c3csc(C)n3)nc2O)C1` (centres undefined): the cytotoxicity at 70.5 h was -8.59%.

On to `Cc1ccc(-c2noc(CC[C@@H]3CCCN4CCCC[C@H]34)n2)nn1`, for which the cytotoxicity at 70.5 h is -3.37%.

For the molecule `COc1ccc(N2Cc3n[nH]c(=O)n3C2=O)cc1`, the cytotoxicity at 70.5 h is -3.14%.

`CN(c1ccc(Cl)c(C(=O)NCCCN2CCOCC2)c1)S(C)(=O)=O`: the cytotoxicity at 70.5 h amounted to 3.59%.

For `CC(C)c1cc(-c2nn3c(C(C)C)nnc3s2)[nH]n1`, the cytotoxicity at 70.5 h is -11.4%.

Consider `CC(=O)Cn1c(C)cc(=O)c2cc(F)ccc21`, for which the cytotoxicity at 70.5 h was 1.19%.

For `Cc1nc(N2CCCN(c3ncccn3)CC2)c2cnn(C)c2n1`, the cytotoxicity at 70.5 h was -3.77%.

Turning to `C/C=C(\C)CN1C[C@H](NC(=O)CN2CCCC2=O)[C@@H](c2ccc(C)o2)C1`, the cytotoxicity at 70.5 h stood at 9.35%.

`Cc1nc2c(c(=O)n1C)CCN(Cc1cc3ccccc3[nH]1)CC2`: the cytotoxicity at 70.5 h came out at 0.793%.

For the molecule `CCc1nc(NC2CCN(CC(=O)NC3CC3)CC2)c2cnn(C)c2n1`, the cytotoxicity at 70.5 h is 14.5%.

In the case of `Cc1cc(C(=O)NCCC2CCN(C)CC2)ccc1N(C)S(C)(=O)=O`, the cytotoxicity at 70.5 h was -10.7%.

Consider `CCN1CCC(CC(=O)N2CCc3sc(C(=O)N(C)C)cc3C2)CC1`, for which the cytotoxicity at 70.5 h worked out at 20.6%.

For `OC1(c2cn(C3CCN(C4CCSC4)CC3)nn2)CCCC1` (centres undefined), the cytotoxicity at 70.5 h was -4.72%.

Consider `CC(NC(=O)CN(C)S(C)(=O)=O)c1ccc(F)cc1` (centres undefined), for which the cytotoxicity at 70.5 h was -11.2%.

As to `COCc1noc(-c2ccc(N(C)Cc3c(C)n[nH]c3C)nc2)n1`, the cytotoxicity at 70.5 h is -5.36%.

As for `CCOc1ccc(CC(=O)N2CCCC2c2cc(C)on2)cc1` (centres undefined), the cytotoxicity at 70.5 h was -3.15%.

Consider `CCNc1ncc(C(=O)NC2CCSC2)cn1` (centres undefined), for which the cytotoxicity at 70.5 h came out at 8.53%.

For `O=C1CC(c2ccsc2)c2snc(C(=O)O)c2N1` (centres undefined), the cytotoxicity at 70.5 h stood at 8.48%.

Regarding `Cc1ccc(F)cc1NC(=O)C1CCCN1C(=O)C(C)C` (centres undefined), the cytotoxicity at 70.5 h was -5.39%.

Regarding `Cc1cccnc1N1CCN(C(=O)CCc2cn3ccccc3n2)CC1`, the cytotoxicity at 70.5 h stood at 15.3%.

For the molecule `Cc1cc(=O)c2cc(F)ccc2n1CC(=O)O`, the cytotoxicity at 70.5 h was -3.7%.

As to `CCN(Cc1ccc(O)c(C(=O)O)c1)CC1CCOCC1`, the cytotoxicity at 70.5 h was -0.0411%.

As for `COc1ccc(C2CCCN2S(=O)(=O)c2cc(F)ccc2F)cc1` (centres undefined), the cytotoxicity at 70.5 h is -6.85%.

As for `O=C(c1ccc2nccn2c1)N1CCC(CCn2cccn2)CC1`, the cytotoxicity at 70.5 h is -9.36%.

As to `CCN(c1ccc(C(=O)N2CCC(C)CC2)cc1)S(=O)(=O)CC`, the cytotoxicity at 70.5 h was 2.02%.

Turning to `Cc1cnccc1N1CCN(c2nccc(CCC(F)(F)F)n2)CC1`, the cytotoxicity at 70.5 h is -9.06%.

`COc1ccc(CNCC(O)c2cccc(O)c2)cc1Br` (centres undefined): the cytotoxicity at 70.5 h is -3.02%.

On to `Cc1ncn(-c2cc(N3CCN(S(C)(=O)=O)CC3)ncn2)c1C`, for which the cytotoxicity at 70.5 h was -4.92%.

Turning to `CCn1c(C)nnc1SCCNc1nc(C)nc2c1cnn2C`, the cytotoxicity at 70.5 h is -9.87%.

Turning to `O=C(c1cccc(CO)n1)N1CCOC(c2ccc(Cl)c(Cl)c2)C1` (centres undefined), the cytotoxicity at 70.5 h was -9.7%.

Consider `COCCC(=O)N1Cc2cnc(Cc3ccc(OC)cc3)nc2C1`, for which the cytotoxicity at 70.5 h was -1.53%.

On to `CC(C)CNC(=O)c1ccc2c(=O)n(-c3ccccc3)cnc2c1`, for which the cytotoxicity at 70.5 h was -5.61%.

With `CN(C)C1CCCN(C(=O)c2ccc3sc4c(c3c2)CCNC4=O)CC1` (centres undefined), the cytotoxicity at 70.5 h stood at 1.18%.

In the case of `CC(C)Oc1ccccc1OCCN1C(=O)CCNC1=O`, the cytotoxicity at 70.5 h turned out to be 22.4%.

`CCCNC(=O)CCC(=O)N1CCC(c2noc3cc(F)ccc23)CC1`: the cytotoxicity at 70.5 h is -8.21%.

In the case of `CC(C)C(Nc1nc(C(F)(F)F)nc2ccccc12)C(=O)O` (centres undefined), the cytotoxicity at 70.5 h is -1.94%.

Take `COCc1nc(C2CC2)nn1-c1cc(Cl)ccc1OC`: the cytotoxicity at 70.5 h is -3.71%.

For `CS(=O)(=O)N1CCN(c2ccnc(N3CCCC3)n2)CC1`, the cytotoxicity at 70.5 h is -4.19%.

Take `COc1ccc(NC(=O)Cn2nc(C)c(C)cc2=O)c(OC)c1`: the cytotoxicity at 70.5 h was -8.67%.

In the case of `Cc1cccc(CN2CCCC(O)(CNCCN3CCCCC3)C2=O)c1` (centres undefined), the cytotoxicity at 70.5 h was 2.73%.

`CC(=O)c1cn(CC(=O)N2CCC3(CC2)OCCO3)c2ccccc12`: the cytotoxicity at 70.5 h was -5.36%.

As to `CCC(Oc1ccc(N(C)S(C)(=O)=O)cc1)C(N)=O` (centres undefined), the cytotoxicity at 70.5 h is -5.31%.

As to `CCOCCN1C[C@H](c2cccc(OC)c2)[C@@H](N)C1`, the cytotoxicity at 70.5 h is -4.15%.

For `N[C@H]1CN(C(=O)CCC(F)(F)F)C[C@@H]1c1ccccc1`, the cytotoxicity at 70.5 h is -5.15%.

As for `Cc1ccnc(OCC(=O)N2CCN(c3ncccn3)CC2)n1`, the cytotoxicity at 70.5 h is -12.6%.

Turning to `Cc1nc(C)c(C(=O)NCCNc2cc(N3CCCC3)ncn2)s1`, the cytotoxicity at 70.5 h is 9.32%.

As for `O=C(c1cncc(N2CCC3(CC2)NCCNC3=O)n1)N1CCCCC1`, the cytotoxicity at 70.5 h was -4.89%.

For `CCC(NC(=O)C(C)C)c1ccccc1C` (centres undefined), the cytotoxicity at 70.5 h was -5.31%.

As for `CCN1CCCC(CNC(=O)C2(c3cc(C)cc(C)c3)CCC2)C1` (centres undefined), the cytotoxicity at 70.5 h was 28.2%.

As to `CCNc1cc2c(nn1)CCN(C(=O)C(C)c1c(C)noc1C)C2` (centres undefined), the cytotoxicity at 70.5 h was -4.66%.

`CC(NC(=O)NCC1(c2ccc(F)cc2)CCCC1)c1nncn1C` (centres undefined): the cytotoxicity at 70.5 h was -3.48%.

For the molecule `O=C(CCn1cncn1)NC1CCc2nccn2C1` (centres undefined), the cytotoxicity at 70.5 h is -0.747%.

As to `COCCN1CCN(C(C)c2nc(C3CC3)no2)CC1` (centres undefined), the cytotoxicity at 70.5 h turned out to be 17%.

As to `Cc1noc(C(C)N2CCN(CCOCC(F)(F)F)CC2)n1` (centres undefined), the cytotoxicity at 70.5 h is 27.9%.

For the molecule `CCOCCN1CCN(C(C)c2nc(C3CC3)no2)CC1` (centres undefined), the cytotoxicity at 70.5 h is 12.1%.

`CCOc1ncccc1NC(=O)N1CCCN(C(=O)OC)CC1`: the cytotoxicity at 70.5 h was -0.675%.

With `Cc1cc(C2CCCN(C(=O)Cc3csc(C(C)C)n3)C2)n[nH]1` (centres undefined), the cytotoxicity at 70.5 h is -5.03%.

Consider `CC(C)CC(=O)Nc1cccc(CNCc2cccs2)c1`, for which the cytotoxicity at 70.5 h was -3.67%.
